Assay [1] deals with PGE2 production in HCA-7 colon cancer cells. Put plainly: PGE2 production assay in IL-1β-treated HCA-7 cells. Particulars: Homo sapiens, HCA-7, read-out: PGE2 (%): % of inhibition of PGE2 levels in HCA-7 cells, 1 μM concentration; ± SD (n = 3); NR = no observed reduction. The format is cell-based.
In another assay the target is T1, COX-2 (Homo sapiens, UniProt P35354).
T1 sequence (P35354 18-604): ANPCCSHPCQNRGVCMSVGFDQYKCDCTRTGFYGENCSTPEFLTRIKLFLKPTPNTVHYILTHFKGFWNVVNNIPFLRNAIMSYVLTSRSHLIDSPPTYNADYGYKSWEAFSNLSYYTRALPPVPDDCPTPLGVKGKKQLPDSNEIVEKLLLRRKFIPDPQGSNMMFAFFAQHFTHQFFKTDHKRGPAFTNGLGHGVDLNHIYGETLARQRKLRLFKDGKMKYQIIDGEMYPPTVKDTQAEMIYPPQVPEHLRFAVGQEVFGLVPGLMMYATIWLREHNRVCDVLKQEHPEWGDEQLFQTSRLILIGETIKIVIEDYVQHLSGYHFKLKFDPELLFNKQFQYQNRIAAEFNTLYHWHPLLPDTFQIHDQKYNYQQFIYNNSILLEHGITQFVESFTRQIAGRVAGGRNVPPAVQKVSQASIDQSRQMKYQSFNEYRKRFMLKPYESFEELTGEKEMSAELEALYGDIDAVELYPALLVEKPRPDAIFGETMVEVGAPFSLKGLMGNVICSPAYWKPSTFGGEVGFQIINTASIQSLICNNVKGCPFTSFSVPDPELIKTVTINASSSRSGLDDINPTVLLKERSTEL
As to the kind of experiment: COX-2 cell-free assay. The settings on record: read-out: COX-2 (%): % of inhibition of COX-2 levels in vitro.

Each structure is given as a SMILES string.

As to `O=C(c1ccccc1)c1sc(Nc2ccc3c(c2)OCO3)nc1-c1ccccc1` [5a], the inhibition at 1 µM in assay [1] is under 0%. On the same count and under the same terms, in the case of `COc1ccc(Nc2nc(-c3ccccc3)c(C(=O)c3ccccc3)s2)cc1` [5c] it was under 0%. For `Cc1nc(Nc2ccc(Oc3ccccc3)cc2)sc1C(C)O` (stereo not drawn) [5l], the inhibition at 5 µM at COX-2 was -16.9 ± 10%.

The values above are taken from paper PMC3727903 (Bioorganic & medicinal chemistry letters, 2012).
